Drawing on US8962660B2 (Bristol-Myers Squibb Company, priority 2013, dated 2015), this text covers EC50 for 16 compounds.

For this test, the target named is T1, human GPR120 (Homo sapiens, UniProt Q5NUL3).
T1 construct: expressed in transfected cells; host or cells: CHOA12 cells
T1 sequence (Q5NUL3 1-361): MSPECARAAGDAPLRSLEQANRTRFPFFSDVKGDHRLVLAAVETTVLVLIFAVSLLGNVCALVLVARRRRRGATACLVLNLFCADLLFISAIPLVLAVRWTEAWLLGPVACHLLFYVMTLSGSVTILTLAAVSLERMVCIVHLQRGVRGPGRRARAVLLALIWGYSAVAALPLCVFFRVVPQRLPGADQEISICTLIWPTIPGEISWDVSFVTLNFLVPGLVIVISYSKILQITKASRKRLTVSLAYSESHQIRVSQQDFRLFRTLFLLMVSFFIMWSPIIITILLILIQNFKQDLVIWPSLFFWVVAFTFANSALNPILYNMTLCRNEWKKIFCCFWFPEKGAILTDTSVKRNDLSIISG
Nature of the test: GPR120 pERK AlphaScreen SureFire assay (human). In kind it is cell-based. The settings on record: CHO cells stably transfected with short form of human GPR120. An excerpt:
GPR120 activity was monitored by measuring phosphorylation of ERK (pERK), since G protein receptors are known to activate the ERK signaling cascade either directly and/or through recruitment of arrestin that serves as a scaffold for downstream signaling events.
GPR120 pERK AlphaScreen SureFire Assay
The human and mouse GPR120-mediated intracellular phosphorylated ERK assays were established using CHOA12 cells stably transfected with the short form of human or mouse GPR120 receptor. Cells were cultured in growth medium consisting of F-12 media (Invitrogen Cat. #11765) with 5% Charcoal/Dextran FBS (Invitrogen Cat. #12676-029), 500 μg/mL GENETICIN® (Life Technologies Cat. #10131-027) and 250 μg/mL Zeocin (Invitrogen Cat. #R250-01). Cells were cryo preserved at a concentration of 2×10^7 cells/mL, in 90% Charcoal/Dextran FBS and 10% DMSO, and frozen in liquid nitrogen at a low passage number.
For the pERK assay, 2×10^7 cells/mL cryopreserved human and mouse cells were thawed rapidly in a 37° C. water bath and added to a T-225 flask containing 50 mL growth medium. The flasks were placed in a tissue culture incubator overnight (37° C., 5% CO2). The next day, cells were harvested with trypsin (Gibco Cat. #25300-054), resuspended in serum-containing growth medium and counted using a Cellometer and volume adjusted to a concentration of 0.6×10^6cells/mL. Cells were plated into 384-well clear bottom tissue culture plates (BD Cat. #353962) at 50 μL/well, for a density of 30,000 cells/well using a MULTIDROP® and incubated for 16-18 hours (overnight) at 37° C. with 5% CO2. The next day, cells were serum starved in 30 μL of F-12 media without any serum or antibiotics for 2 hours at 37° C.
Test compounds were 3-fold, 11-point serially diluted in DMSO in a REMP assay plate (Matrix Cat. #4307) by Tecan and 5 μL was transferred into an ECHO source plate (LABCYTE® Cat. #LC-0200). Cells were then stimulated with 50 nL of compound dilutions using ECHO liquid handler for 7 minutes at 37° C. Compounds ranged from final assay concentrations of 33.33 μM to 0.56 nM.
The media was then dumped and cells lysed with 20 μL of 1× Lysis buffer from the AlphaScreen SureFire Phospho-ERK 1/2 Kit (Perkin Elmer Cat. #6760617M). The lysis buffer was diluted 5-fold with water before use. The plate was agitated on a shaker for 10 minutes after which 2 μL was transferred into a 384-well white proxiplate (Perkin Elmer Cat. #6008289). The SureFire assay reagent mix was prepared by mixing 60 parts Reaction Buffer, 10 parts Activation Buffer, 1 part Donor Beads, 1 part Acceptor Beads (Perkin Elmer Cat. #TGRES10K). 3.5 μL/well of this reagent mix was manually added to the proxiplate with a multichannel pipettor. Plates were spun down at 1000 rpm for 2 minutes, followed by light-protected incubation at room temperature for 2 hours. The plates were read on the Alpha-technology compatible Envision multilabel plate reader using AlphaScreen protocol according to manufacturer's specifications. The agonist effect of compounds was expressed as 100×(average sample−average blank)/(average total−average blank) where sample is the luminescence activity in the presence of test compound, blank is equal to the luminescence activity in the presence of DMSO control and the total is signal induced by 50 μM linolenic acid as reference compound. Activation data for the test compound over a range of concentrations was plotted as percentage activation of the test compound (100%=maximum response). After correcting for background, EC50 values were determined The EC50 is defined as the concentration of test compound which produces 50% of the maximal response and was quantified using the 4 parameter logistic equation to fit the data.
The human and mouse GPR120-mediated intracellular phosphorylated ERK assays were also established using CHO-K1 cells stably transfected with the short form of human or mouse GPR120 receptor. […]

In turn, `O=C(O)COCCC12CCC(c3cccc(Oc4ccc(Cl)cc4)c3)(CC1)OC2` [Example 40, 2-(2-(1-(3-(4-chlorophenoxy)phenyl)-2-oxabicyclo[2.2.2]octan-4-yl)ethoxy) acetic acid] returned an EC50 of 300 nM.
As for `OCC(O)CCCC12CCC(c3cccc(Oc4ccccc4)c3)(CC1)OC2` (single isomer, unassigned) [Example 59, S-5-(1-(3-Phenoxyphenyl)-2-oxabicyclo[2.2.2]octan-4-yl)pentane-1,2-diol], the midpoint of the response, the EC50, lay at 360 nM.
Next, `O=C(O)COCCC12CCC(c3cc(F)cc(Oc4ccc(F)cc4)c3)(CC1)OC2` [Example 85, 2-(2-(1-(3-fluoro-5-(4-fluorophenoxy)phenyl)-2-oxabicyclo[2.2.2]octan-4-yl)ethoxy)acetic acid]: 310 nM; `O=C(O)CCOCC12CCC(c3cccc(Oc4ccccc4)c3)(CC1)OC2` [Example 5, 3-((1-(3-Phenoxyphenyl)-2-oxabicyclo[2.2.2]octan-4-yl)methoxy)propanoic acid]: 80 nM; `Cc1ccc(Oc2cccc(C34CCC(CCOCC(=O)O)(CC3)CO4)c2)cc1` [Example 41, 2-(2-(1-(3-(p-tolyloxy)phenyl)-2-oxabicyclo [2.2.2]octan-4-yl)ethoxy)acetic acid]: 200 nM.
For `O=C(O)C1CC1CCC12CCC(c3cccc(OC4CCCCO4)c3)(CC1)OC2` (stereo not shown) [Example 61, 2-(2-(1-(3-(Tetrahydro-2H-pyran-2-yloxy)phenyl)-2-oxabicyclo[2.2.2]octan-4-yl)ethyl) cyclopropanecarboxylic acid] the value was 5230 nM; for `O=C(O)COC(=O)NCC12CCC(c3cccc(Oc4ccccc4)c3)(CC1)OC2` [Example 28, 2-((1-(3-Phenoxyphenyl)-2-oxabicyclo[2.2.2]octan-4-yl)methylcarbamoyloxy)acetic acid], 1980 nM; for `Cc1cc(Oc2cccc(C34CCC(CCOCC(=O)O)(CC3)CO4)c2)ccc1F` [Example 78, 2-(2-(1-(3-(4-fluoro-3-methylphenoxy)phenyl)-2-oxabicyclo[2.2.2]octan-4-yl)ethoxy)acetic acid], 490 nM.
For `O=C(O)COCCCC12CCC(c3cccc(Oc4ccccc4)c3)(CC1)CO2` [Example 110, 2-(3-(4-(3-Phenoxyphenyl)-2-oxabicyclo[2.2.2]octan-1-yl)propoxy)acetic acid] the value was 490 nM.
As for `Cc1ccc(Oc2cc(C34CCC(CCOCC(=O)O)(CC3)OC4)ccc2F)cc1C` [Example 113], a half-maximal response (EC50) required 860 nM.
Next, `COc1cccc(Oc2cccc(C34CCC(CCOCC(=O)O)(CC3)CO4)c2)c1` [Example 22, 2-(2-(1-(3-(3-Methoxyphenoxy)phenyl)-2-oxabicyclo[2.2.2]octan-4-yl)ethoxy)acetic acid]: 380 nM; `CC(C)COc1cccc(C23CCC(CC[C@@H]4C[C@H]4C(=O)O)(CC2)CO3)c1` (single isomer, unassigned) [Example 66, 2-(2-(1-(3-Isobutoxyphenyl)-2-oxabicyclo[2.2.2]octan-4-yl)ethyl)cyclopropanecarboxylic acid]: 2080 nM.
Next, `CS(=O)(=O)NC(=O)CCCCC12CCC(c3cccc(Oc4ccccc4)c3)(CC1)OC2` [Example 26, N-(Methylsulfonyl)-5-(1-(3-phenoxyphenyl)-2-oxabicyclo[2.2.2]octan-4-yl)pentanamide]: 170 nM.
`O=C(O)CCC12CCC(c3cccc(Oc4ccccc4)c3)(CC1)OC2` [Example 1, 3-(1-(3-Phenoxyphenyl)-2-oxabicyclo[2.2.2]octan-4-yl)propanoic acid] returned an EC50 of 2310 nM. Against the preceding compound, the EC50 is about 14-fold higher.
`CCc1cccc(Oc2cccc(C34CCC(CCOCC(=O)O)(CC3)CO4)c2)c1` [Example 119, 2-(2-(1-(3-(3-Ethylphenoxy)phenyl)-2-oxabicyclo[2.2.2]octan-4-yl)ethoxy)acetic acid] showed a concentration for a half-maximal effect (EC50) of 1600 nM. This EC50 and that of the compound before are within 1.5-fold of each other.
Compound `O=C(O)COCCC12CCC(c3cccc(Oc4ccc(F)cc4)c3)(CC1)OC2` [Example 39, 2-(2-(1-(3-(4-fluorophenoxy)phenyl)-2-oxabicyclo[2.2.2]octan-4-yl)ethoxy) acetic acid] registered an EC50 of 200 nM.
